Test results: EP4153181B1, “PHARMACEUTICAL COMPOSITIONS COMPRISING BICTEGRAVIR” (GILEAD SCIENCES, INC., priority 2020, dated 2021)

Experiments:
Settings in all cases: IV administration, mean
[1] = Plasma pharmacokinetics of BIC after single SC or IM injection of long acting formulations in monkey; type: in vivo, cynomolgus monkey
[2] = Plasma pharmacokinetics of BIC after single SC injection of long acting formulations (and IV infusion) in dog; type: in vivo, beagle dog
Description: (§1) Pharmacokinetics (PK) following a single BIC SC injection of solution and suspension formulations was characterized in male Sprague-Dawley rat, beagle dog, and cynomolgus monkey. The BIC injectable solution and both suspension formulations display extended-release PK following SC administration in all examined species and support a potential monthly or less frequent dosing regimen. […] Table 1. BIC Plasma Pharmacokinetic Parameters Following a Single Subcutaneous (SC) or Intramuscular (IM) Administration
This study investigated the pharmacokinetics of three formulations of bictegravir (BIC) by subcutaneous administration to determine the potential to deliver a long acting (LA) pharmacokinetic (PK) profile. BIC was administered by a 30-min intravenous (IV) infusion at 0.5 or 1 mg/kg and by subcutaneous (SC) injection of three LA formulations (e.g., NMP solution, HPMC suspension, and PVP suspension) at 10 mg/kg or 100 mg fixed dose to Male Beagle Dogs. The concentrations of BIC in plasma were determined with a liquid chromatography-tandem mass spectrometry (LC-MS/MS) method.
At dosing, the animals weighed between 7.98 and 11.6 kg. The animals from the SC leg with the PVP suspension were not fasted. […]
The intravenous dose was administered as a 30-minute infusion via a saphenous vein. […] Individual dose was calculated based on body weights recorded on the day of dose administration. […]

[3] = Plasma pharmacokinetics of BIC after single SC injection of long acting formulations (and IV infusion) in rat; type: in vivo, male Sprague-Dawley rat
Description: as §1
This study investigated the pharmacokinetics of three formulations of bictegravir (BIC) by subcutaneous administration to determine the potential to deliver a long acting (LA) pharmacokinetic (PK) profile. […] The concentrations of BIC in plasma were determined with a liquid chromatography-tandem mass spectrometry (LC-MS/MS) method. […]
The intravenous dose was administered as a 30-minute infusion via a catheter implanted animals. […] Individual dose was calculated based on body weights recorded on the day of dose administration. […]
For estimation of pharmacokinetic parameters, concentrations reported as below the lower limit of quantification (BLQ) were assigned a value of zero if pre-dose and treated as missing thereafter. […]

O=C(NCc1c(F)cc(F)cc1F)c1cn2c(c(O)c1=O)C(=O)N1[C@H]3CC[C@H](C3)O[C@@H]1C2 [BIC, (2R,5S,13aR)-8-hydroxy-7,9-dioxo-N-(2,4,6-trifluorobenzyl)-2,3,4,5,7,9,13,13a-octahydro-2,5-methanopyrido[1',2':4,5]pyrazino[2,1-b][1,3]oxazepine-10-carboxamide]
systemic elimination rate (ke1 = CL/Vss) [1]: ~ 0.253 h^-1
systemic elimination rate (ke1 = CL/Vss) [2]: ~ 0.302 h^-1
systemic elimination rate (ke1 = CL/Vss) [3]: ~ 0.0162 h^-1
